Measurements taken from patent US11078256B2, “Methods and compositions for inhibiting cancer cell growth” (THE BOARD OF REGENTS OF THE UNIVERSITY OF TEXAS SYSTEM, priority 2018, dated 2021).
Read-outs that look alike come from different tables or passages of the source. No end group written: not given here.

How the values were obtained:
Assay type in all cases: cell-based, Human
[1] = test system: AU565 breast cancer cell line (Her2/neu and p53 positive)
Protocol: (§1) Experimental design: The experimental design (see FIG. 1) was to seed the HCC38 breast cancer cell line (BCCL) with the p1978 pep-tide in order to determine the effects of the peptide on cell growth. The HCC38 cell line was chosen because of its triple negative receptor status. […] They are more likely to recur than other subtypes of breast cancer.
(§2) The 184B5 (normal breast tissue cells) were seeded to serve as a negative control while the AU565 BCCL, a cell line with a positive Her2/neu and p53 receptor status, was inoculated to serve as a positive control. In the initial phase, treatment cell lines were treated with 8.26 μg/ml of p1978. The con-centration corresponds closely to the average SMR3B (the parent protein of the p1978 peptide), concentration, plus one standard deviation found in healthy breast tissues. A second experiment was performed doubling the concentration of 1978 to 16.52 μg/ml. FIG. 1 represents a schematic of the design used for the study.
(§3) Corresponding unseeded cell lines served as controls. The controls were treated with a placebo containing 1.0 ml of sterile PBS (for cell culture). An expanded dose-response experiment was not performed due to limited resources. The experiment ended 48 hours after seeding. The outcome variables of this study were total cell count, live cell count and percent viability.
(§4) Cell lines: Human breast cell lines HCC38 (HCC38 BL (ATCC® CRL-2346™), AU565 (ATCC® CRL2351™) and 184B5 (ATCC® CRL-8799™) were purchased from the American Type Culture Collection. Cell line descriptions are summarized in Table 1.
(§5) Cell growth procedures: The aforementioned cell lines were thawed in a 37.0 water bath with gentle agitation. The vials were decontaminated and the cells were added drop wise to 9 ml of their prospective culture media while gently mixing. The cell suspension was centrifuged at 1,000 rpm for five minutes. The supernatant was carefully removed and the cell pellet was resuspended in 5.0 ml of media. Each cell line was checked for viability using a hemocytometer and a cell count/ml was calculated. Nine plates were seeded of each cell line at a total of 1.0×10^6 cells/100 mm plates. Once the plates reached 30% confluency, nine plates of each cell line were treated with 8.26 μg/ml (4.95 μM) of p1978 peptide and a set of nine control plates were treated with 1.0 ml of phosphate buffered saline (PBS). They were incubated and harvested by trypsinization in 48 hours. The cells from each plate were counted for the total number of cells and were assessed for viability using the trypan blue exclusion test of cell viability. The same procedures were repeated for the higher 16.52 ug/ml (9.88 uM) dose.
(§6) Statistics: Data was tabulated using SPSS statistical software. The outcome variables of this study were total cell count, live cell count and percent viability. To assess these variables, descriptive statistics were employed to compare p1978 treated cells relative to the control cells. The approach consisted mainly of bar charts, mean cell counts and mean percentages. The cellular growth rate was determined by subtracting the resultant or final cell count from its baseline value. The difference was divided by 48 hours the growing time for the cells. The results were expressed in cells/hour.
(§7) A homoscedastic univariate t-test was computed for differences between the treated and the control groups. The arithmetic mean value of the control group was used as the “cut-point” value. The alpha level was p<0.05.

[2] = test system: HCC38 breast cancer cell line (triple negative); test: Cell growth: total and live cell count, trypan blue exclusion viability, 48 hours after seeding with p1978; design: key to Total growth rate, Treated / Live growth rate, Treated: N.G. = Negative Growth
Protocol: as §1, §2, §3, §4, §5, §6, §7

[3] = test system: 184B5 cell line (normal breast tissue cells); test: in vitro
Protocol: as §1, §2, §3, §4, §5, §6, §7

in vitro = conditions: human
Protocol: as §1, §2, §3, §4, §5, §6, §7

[4] = AU565, 8.26 ug/ml p1978, 48 hours
[5] = AU565, 8.26 μg/ml p1978, over 48 hours
[6] = AU565, 16.52 μg/ml p1978, 48 hours
[7] = AU565, 16.52 μg/ml p1978, 48 hours, footnote: * represents 10^5
[8] = AU565, 16.52 μg/ml p1978, over 48 hours
[9] = HCC38, 8.26 μg/ml p1978, over 48 hours
[10] = HCC38, 16.52 μg/ml p1978, 48 hours
[11] = HCC38, 16.52 μg/ml p1978, over 48 hours
[12] = 184B5, 8.26 ug/ml p1978, 48 hours
[13] = 184B5, 8.26 μg/ml p1978, over 48 hours
[14] = 184B5, 16.52 ug/ml p1978, 48 hours
[15] = 184B5, 16.52 μg/ml p1978, 48 hours
[16] = 184B5, 16.52 μg/ml p1978, over 48 hours

Sequence: PRGPYPPGPLAPPQ [p1978, PRGPYPPGPLAPPQ]
- live cell count higher than control group [1, 4]: 11.7%
- total cell count higher than control group [1, 4]: 31.5%
- Live growth rate, Treated [1, 5]: 0.77 10^4 cells/hour
- Total growth rate, Treated [1, 5]: 1.38 10^4 cells/hour
- knockdown effect on cell count ([1]; AU565, 16.52 ug/ml p1978): No knockdown effect
- increase in living cell count ([1]; AU565, 16.52 ug/ml p1978, 48 hours): 23.1%
- % Live, Treated [1, 6]: 75%
- Live × 10^6 (mean cell count with standard deviation), Treated [1, 6]: 1.60 (±0.42) × 10^6
- Live × 10^6, Treated - Control [1, 6]: 0.30 × 10^6
- Total × 10^6 (mean cell count with standard deviation), Treated [1, 6]: 2.14 (±0.50) × 10^6
- Total × 10^6, Treated - Control [1, 6]: 0.27 × 10^6
- Live, Treated - Baseline [1, 7]: 0.24* 10^5
- Total, Treated - Baseline [1, 7]: 0.24* 10^5
- Live growth rate, Treated [1, 8]: 0.50 10^4 cells/hour
- Total growth rate, Treated [1, 8]: 0.50 10^4 cells/hour
- percent viability, treated ([1]; human, 48 hours, 8.26 ug/ml): 61%
- reduction of total cell count versus control ([2]; HCC38, 8.26 ug/ml p1978, 48 hours): 20.8%
- reduction of living cell count versus control ([2]; HCC38, 8.26 ug/ml p1978, 48 hours, t=−3.25, p 0.08): 33.2%
- Live growth rate, Treated [2, 9]: N.G.
- Total growth rate, Treated [2, 9]: N.G.
- growth rate difference, treated versus control ([2]; HCC38, 16.52 ug/ml p1978): −38%
- average total number of cells higher in control than in treated (knockdown effect) ([2]; HCC38, 16.52 ug/ml p1978, 48 hours): 22.4%
- % Live, Treated [2, 10]: 92%
- Live × 10^6 (mean cell count with standard deviation), Treated [2, 10]: 1.87 (±0.43) × 10^6
- Live × 10^6, Treated - Baseline [2, 10]: 1.10 × 10^6
- Live × 10^6, Treated - Control [2, 10]: −0.67 × 10^6
- Total × 10^6 (mean cell count with standard deviation), Treated [2, 10]: 2.03 (±0.62) × 10^6
- Total × 10^6, Treated - Baseline [2, 10]: 1.03 × 10^6
- Total × 10^6, Treated - Control [2, 10]: −0.61 × 10^6
- decrease in the number of living cells as compared to the control ([2]; HCC38, 16.52 ug/ml p1978, 48 hours, t=−3.08, p<0.05): 37.9%
- Live growth rate, Treated [2, 11]: 2.29 10^4 cells/hour
- Total growth rate, Treated [2, 11]: 2.16 10^4 cells/hour
- difference in growth rate between the treated and the controls ([3]; 184B5, 8.26 ug/ml p1978): almost negligible difference
- higher living cell count for the treated cells as compared to the control [3, 12]: 3.5%
- higher total cell count for the treated cells as compared to the control [3, 12]: 7.5%
- Live growth rate, Treated [3, 13]: 0.59 10^4 cells/hour
- Total growth rate, Treated [3, 13]: 1.11 10^4 cells/hour
- effect on cell viability or growth rate ([3]; 184B5, 16.52 ug/ml p1978): no effect
- increase in the living cell count for the treated cells as compared to the control [3, 14]: 63.7%
- increase in the total cell count for the treated cells as compared to the control [3, 14]: 22.4%
- % Live, Treated [3, 15]: 98%
- Live × 10^6 (mean cell count with standard deviation), Treated [3, 15]: 4.82 (±0.75) × 10^6
- Live × 10^6, Treated - Baseline [3, 15]: 2.57 × 10^6
- Live × 10^6, Treated - Control [3, 15]: 1.00 × 10^6
- Total × 10^6 (mean cell count with standard deviation), Treated [3, 15]: 4.91 (±0.63) × 10^6
- Total × 10^6, Treated - Baseline [3, 15]: 2.62 × 10^6
- Total × 10^6, Treated - Control [3, 15]: 0.90 × 10^6
- Live growth rate, Treated [3, 16]: 2.77 10^4 cells/hour
- Total growth rate, Treated [3, 16]: 7.83 10^4 cells/hour
- viability at 48 hours, 8.26 μg/ml (in vitro): 91%
- viability at 48 hours, 16.52 μg/ml (in vitro): 95 to 98%
